Measured values from US11414379B2, “SPAK kinase inhibitors as neuroprotective agents” (United States Government as represented by the Department …, priority 2018, dated 2022).

Tests used:
[1] = tested on: KCC2 pThr1007 and NKCC1 pThr203/207/212; experiment: In vivo pharmacodynamic analysis, brain; design: species or system mouse; details: naïve brains; 60 minutes after administration
Procedure: Male C57BL/6j wild-type mice (6 weeks old) were purchased from Charles River Laboratories Edinburgh UK. ZT-1a was dissolved in DMSO (Sigma) solution and administered by subcutaneous injection into wild type male C57BL/6 mice at doses of 0, 3, 10, 30, 50 and 100 mg/kg. 50 mg/kg Closantel (1) was injected as a comparative control. Age-matched SPAK^502A/502A knock-in mice were also used as comparative controls (Zhang et al. (2015) Human molecular genetics 24: 4545-455). Control mice were treated with an equal volume of DMSO solution. One hour after administration, mice were sacrificed by cervical dislocation, and kidney and brain tissues were rapidly dissected and snap-frozen in liquid nitrogen. The SPAK^502A/502A knock-in mouse was established and maintained under specific pathogen-free conditions at the University of Dundee (UK) as described in our recent study.
Referring to FIG. 9A and FIG. 9B, in vivo pharmacodynamic analysis of ZT-1a was performed. ZT-1a and Closantel were administered via subcutaneous injection at the indicated doses. Brain (FIG. 9A) and kidney (FIG. 9B) tissues were collected, and endogenous proteins were subjected to immunoblot probed with SPAK, NKCC1 and NCC phospho-specific antibodies.

[2] = tested on: mouse model of ischemic stroke; experiment: Infarct volume and hemispheric swelling after transient MCAO; type: in vivo
Text: Under an operating microscope, the left common carotid artery was exposed through a midline incision. […] The ECA was dissected further distally and permanently ligated. The internal carotid artery (ICA) was isolated and carefully separated from the adjacent vagus nerve. A 12 mm length of silicon-coated nylon filament (size 6-0, native diameter 0.11 mm; diameter with coating 0.21+/−0.02 mm; coating length 5-6 mm; Doccol Corporation, Sharon, Mass.) was introduced into the ECA lumen through a puncture. The silk suture around the ECA stump was tightened around the intraluminal nylon suture to prevent bleeding. The nylon suture was then gently advanced from the ECA to the ICA lumen until mild resistance was felt (˜9 mm). For reperfusion, the suture was withdrawn 50 min after MCAO to restore blood flow. Body temperature was maintained for the duration of the experiment between 36.5° C.-37° C. with a small animal heating pad (Kent Scientific).
At 24 hours reperfusion, mice were anesthetized with 5% isoflurane and then decapitated. Coronal brain tissue slices (2 mm) were stained for 20 minutes at 37° C. with 1% 2,3,5-triphenyltetrazolium chloride monohydrate (TTC; Sigma, St Louis, Mo.) in PBS solution. […] The extent of hemispheric swelling was calculated using the following equation: swelling (% contralateral side)=[(volume of ipsilateral hemisphere−volume of contralateral hemisphere)/volume of contralateral hemisphere]×100 (Bhuiyan et al. (2017) Journal of cerebral blood flow and metabolism: official journal of the International Society of Cerebral Blood Flow and Metabolism 37: 2780-2794).
Referring to FIG. 11A, an experimental design of ischemic stroke study is shown. Vehicle or ZT-1a is administered at 3 hrs and 8 hrs post-MCAO.
Referring to FIG. 11B, representative images and quantification of infarct volume and hemispheric swelling in TTC-stained coronal sections of mouse brains 24 hrs post-MCAO are shown. Vehicle (DMSO, 2 ml/kg) or ZT-1a (2.5 or 5.0 mg/kg) were administered with an initial half dose at 3 hrs and the second half dose at 8 hr reperfusion via intra-peritoneal injection (i.p.). Data are mean±SD, n=6-12 per group (male). * p<0.05.

human SPAK 452-547(end) = biological target: T1, human SPAK 452-547(end) (Homo sapiens, UniProt Q9UEW8); experiment: Fluorescence polarization, SPAK-WNK peptide interaction; type: binding; details: for IC50: Lumio-Green-labelled WNK peptide 10 nM, read-out: IC50, concentration-dependent decrease in fluorescence polarization; for disruption of binding between WNK4 and the SPAK CCT domain: fluorescence polarization
T1 construct: Purified human SPAK 452-547(end); made in house; host or cells: E. coli
Procedure: Fluorescence polarization measurements were performed at 25° C. with purified SPAK proteins in 50 mM Tris/HCl, pH 7.5, 150 mM NaCl and 2 mM DTT. The concentration of SPAK proteins was determined by measuring their absorbance at 280 nm and calculated using the molar absorption coefficient determined by the ProtParam Online tool (Gasteiger et al., 2001). All peptides ([…] [EP4543] and […] [EP4544]; SEQ ID NO:2 and SEQ ID NO:3, respectively) contained an N-terminal linker required for conjugating to the Lumio Green fluorophore ([…]; SEQ ID NO:4) and were initially re-suspended in 50 mM ammonium bicarbonate, pH 8. Peptide labelling was achieved by incubating […] of each peptide in a 0.5 ml reaction mixture of 20 μM Lumio Green in 25 mM Tris/HCl, pH 7.5, 200 mM NaCl and 5 mM 2-mercaptoethanol. Reactions were left to proceed in the dark for 2 h. The peptides were dialysed for 4 h into 25 mM Tris/HCl, pH 7.5, 200 mM NaCl and 5 mM 2-mercaptoethanol using a Micro DispoDIALYZER with a 100 Da molecular-mass cut-off (Harvard Apparatus), and then for another 12 h with changed buffer. For fluorescence polarization, mixtures were set up containing the indicated concentration of protein, 10 nM Lumio-Green-labelled peptide in a final volume of 30 μl. All individual bindings were performed in duplicate with at least 12 data points per curve. Fluorescence polarization was measured using a BMG PheraStar plate reader, with an excitation wavelength of 485 nm and an emission wavelength of 538 nm, and measurements were corrected to the fluorescent probe alone. Data analysis and graphing were then performed in GraphPad Prism7; a one-site specific binding model was assumed (Y=Bmax*X/[Kd+X]) and the fitted dissociation constant computed. All experimental bindings were repeated at least twice.
Referring to FIG. 5A, analysis of SPAK-WNK interaction by fluorescence polarization is shown. Purified human SPAK 452-547(end) and human SPAK 452-547 with L491A (equivalent to L502 in mouse) were diluted appropriately and mixed at a 1:1 volume ratio with 20 nM Lumino-Green-labelled WNK peptide (RFQV or AFQV) to the concentration stated in the Figure (with the final peptide concentration consistent at 10 nM), and fluorescent polarization measurements were made. Binding curves, assuming one-site-specific binding, were then generated with Prism6 using milli-polarization (mP) units.

Structure (SMILES)	effect on KCC2 (pThr1007) or NKCC1 (pThr203/207/212) phosphorylation [1]	effect on infarct volume and hemispheric swelling ([2]; 0.1 mg/kg dose)	effect on infarct volume and hemispheric swelling ([2]; 1.0 or 2.5 mg/kg at 3 hr and at 8 hr reperfusion)	IC50 (human SPAK 452-547(end)) [µM]	disruption of binding between WNK4 and the SPAK CCT domain (human SPAK 452-547(end))	infarct volume ([2]; 5 mg/kg i.p., post-stroke from 3 hr reperfusion, 24 hrs post-MCAO, mean±SD) [mm^3]	decrease of infarct volume ([2]; 5 mg/kg i.p., post-stroke from 3 hr reperfusion, 24 hrs post-MCAO, vs vehicle) [%]	reduction of cerebral hemispheric swelling ([2]; 2.5 or 5 mg/kg, 24 hrs post-MCAO, vs vehicle) [%]
Cc1cc(C(C#N)c2ccc(Cl)cc2)c(Cl)cc1NC(=O)c1cc(I)cc(I)c1O (centres unmarked) [Closantel]	neither drug reduced	ineffective	dose-dependently reduced	> 1000	did not disrupt			
Cc1cc(C(C#N)c2ccc(Cl)cc2)c(Cl)cc1NC(=O)c1cc(Cl)ccc1O (centres unmarked) [ZT-1a, 5-chloro-N-(5-chloro-4-((4-chlorophenyl)(cyano)methyl)-2-methylphenyl)-2-hydroxy-benzamide]	neither drug reduced			326	did not disrupt	50.4±27.0	~35	36 to 50
